Publication PMC9569420 (Communications Biology, 2022)

Assays:
PHKg1 = target: T1, PHKg1 (Homo sapiens, UniProt Q16816); test: HotSpot kinase assay; assay type: biochemical; conditions: read-out: % Enzyme Activity (relative to DMSO controls)
T1 construct: purchased Reaction Biology Corporation

EPHB4 = target: T2, EPHB4 (Homo sapiens, UniProt P54760); test: HotSpot kinase assay; assay type: biochemical; conditions: read-out: % Enzyme Activity (relative to DMSO controls)
T2 construct: purchased Reaction Biology Corporation

FAK/PTK2 = target: T3, FAK/PTK2 (Homo sapiens, UniProt Q05397); test: HotSpot kinase assay; assay type: biochemical; conditions: read-out: % Enzyme Activity (relative to DMSO controls)
T3 construct: purchased Reaction Biology Corporation

YES/YES1 = target: T4, YES/YES1 (Homo sapiens, UniProt P07947); test: HotSpot kinase assay; assay type: biochemical; conditions: read-out: % Enzyme Activity (relative to DMSO controls)
T4 construct: purchased Reaction Biology Corporation

PLK1 = target: T5, PLK1 (Homo sapiens, UniProt P53350); test: HotSpot kinase assay; assay type: biochemical; conditions: read-out: % Enzyme Activity (relative to DMSO controls)
T5 construct: purchased Reaction Biology Corporation

BRAF = target: T6, BRAF (Homo sapiens, UniProt P15056); test: HotSpot kinase assay; assay type: biochemical; conditions: read-out: % Enzyme Activity (relative to DMSO controls)
T6 construct: purchased Reaction Biology Corporation

PKCnu/PRKD3 = target: T7, PKCnu/PRKD3 (Homo sapiens, UniProt O94806); test: HotSpot kinase assay; assay type: biochemical; conditions: read-out: % Enzyme Activity (relative to DMSO controls)
T7 construct: purchased Reaction Biology Corporation

EPHB1 = target: T8, EPHB1 (Homo sapiens, UniProt P54762); test: HotSpot kinase assay; assay type: biochemical; conditions: read-out: % Enzyme Activity (relative to DMSO controls)
T8 construct: purchased Reaction Biology Corporation

KSR2 = target: T9, KSR2 (Homo sapiens, UniProt Q6VAB6); test: biochemical; conditions: read-out: % Enzyme Activity (relative to DMSO controls)
T9 construct: purchased Reaction Biology Corporation

GCK/MAP4K2 = target: T10, GCK/MAP4K2 (Homo sapiens, UniProt Q12851); test: HotSpot kinase assay; assay type: biochemical; conditions: read-out: % Enzyme Activity (relative to DMSO controls)
T10 construct: purchased Reaction Biology Corporation

DMPK = target: T11, DMPK (Homo sapiens, UniProt Q09013); test: HotSpot kinase assay; assay type: biochemical; conditions: read-out: % Enzyme Activity (relative to DMSO controls)
T11 construct: purchased Reaction Biology Corporation
T11 sequence (Q09013 whole entry): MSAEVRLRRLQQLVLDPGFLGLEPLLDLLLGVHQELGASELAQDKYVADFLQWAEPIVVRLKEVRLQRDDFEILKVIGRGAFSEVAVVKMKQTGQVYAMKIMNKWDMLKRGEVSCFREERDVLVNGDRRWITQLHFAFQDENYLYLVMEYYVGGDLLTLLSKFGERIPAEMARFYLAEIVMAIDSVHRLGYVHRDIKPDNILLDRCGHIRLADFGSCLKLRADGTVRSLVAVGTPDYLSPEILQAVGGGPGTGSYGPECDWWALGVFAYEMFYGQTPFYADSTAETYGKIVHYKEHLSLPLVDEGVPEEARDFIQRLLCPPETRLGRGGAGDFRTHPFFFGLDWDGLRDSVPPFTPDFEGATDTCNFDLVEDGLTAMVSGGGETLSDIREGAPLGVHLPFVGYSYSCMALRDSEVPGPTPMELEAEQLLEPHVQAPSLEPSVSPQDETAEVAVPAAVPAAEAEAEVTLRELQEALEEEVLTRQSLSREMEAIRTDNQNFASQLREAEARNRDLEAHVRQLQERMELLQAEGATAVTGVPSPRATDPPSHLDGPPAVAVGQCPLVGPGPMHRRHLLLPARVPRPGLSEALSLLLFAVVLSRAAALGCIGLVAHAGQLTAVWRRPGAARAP

NEK9 = target: T12, NEK9 (Homo sapiens, UniProt Q8TD19); test: HotSpot kinase assay; assay type: biochemical; conditions: read-out: % Enzyme Activity (relative to DMSO controls)
T12 construct: purchased Reaction Biology Corporation
T12 sequence (Q8TD19 whole entry): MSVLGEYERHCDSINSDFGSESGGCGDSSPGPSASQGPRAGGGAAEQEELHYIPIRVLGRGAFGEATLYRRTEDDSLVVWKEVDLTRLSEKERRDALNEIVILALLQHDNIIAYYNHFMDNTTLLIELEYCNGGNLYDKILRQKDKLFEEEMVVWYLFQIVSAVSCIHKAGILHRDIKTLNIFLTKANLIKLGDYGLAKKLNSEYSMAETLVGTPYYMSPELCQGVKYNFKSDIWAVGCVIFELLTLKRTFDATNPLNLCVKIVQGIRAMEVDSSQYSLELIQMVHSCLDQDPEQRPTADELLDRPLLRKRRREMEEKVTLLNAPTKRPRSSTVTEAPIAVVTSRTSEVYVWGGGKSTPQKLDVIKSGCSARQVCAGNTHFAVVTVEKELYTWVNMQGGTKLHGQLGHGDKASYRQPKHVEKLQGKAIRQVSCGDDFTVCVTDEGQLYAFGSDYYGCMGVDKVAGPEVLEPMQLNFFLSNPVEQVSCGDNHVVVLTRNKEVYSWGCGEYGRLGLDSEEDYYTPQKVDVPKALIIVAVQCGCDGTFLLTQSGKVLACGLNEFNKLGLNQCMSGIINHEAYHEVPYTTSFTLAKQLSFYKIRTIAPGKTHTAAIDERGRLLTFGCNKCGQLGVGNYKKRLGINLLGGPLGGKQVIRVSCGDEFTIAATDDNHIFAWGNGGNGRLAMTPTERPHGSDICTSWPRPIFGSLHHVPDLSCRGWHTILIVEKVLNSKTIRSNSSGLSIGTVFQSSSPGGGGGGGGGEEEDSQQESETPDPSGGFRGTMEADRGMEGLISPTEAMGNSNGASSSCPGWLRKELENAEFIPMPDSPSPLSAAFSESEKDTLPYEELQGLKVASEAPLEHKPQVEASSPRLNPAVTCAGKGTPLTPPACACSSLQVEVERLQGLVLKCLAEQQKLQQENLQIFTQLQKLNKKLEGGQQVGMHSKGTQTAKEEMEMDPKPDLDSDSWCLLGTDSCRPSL

HIPK3 = target: T13, HIPK3 (Homo sapiens, UniProt Q9H422); test: HotSpot kinase assay; assay type: biochemical; conditions: read-out: % Enzyme Activity (relative to DMSO controls)
T13 construct: purchased Reaction Biology Corporation

PKCzeta = target: T14, PKCzeta (Homo sapiens, UniProt Q05513); test: HotSpot kinase assay; assay type: biochemical; conditions: read-out: % Enzyme Activity (relative to DMSO controls)
T14 construct: purchased Reaction Biology Corporation

CK1epsilon = target: T15, CK1epsilon (Homo sapiens, UniProt P49674); test: HotSpot kinase assay; assay type: biochemical; conditions: read-out: % Enzyme Activity (relative to DMSO controls)
T15 construct: purchased Reaction Biology Corporation

CK1g3 = target: T16, CK1g3 (Homo sapiens, UniProt Q9Y6M4); test: HotSpot kinase assay; assay type: biochemical; conditions: read-out: % Enzyme Activity (relative to DMSO controls)
T16 construct: purchased Reaction Biology Corporation

HSV-2(G) = test: nuclear transport of VP-16 (immunoblot of nuclear extracts); assay type: cell-based; conditions: HaCat and primary vaginal cells, 1 h; CIMSS 10 μM, antibody 2 μg/ml
Procedure: To quantify viral entry, cells were synchronously infected by allowing virus to bind to cells at 4°C for 4 h, washed, and then transferred to 37 °C. CIMSS or control DMSO was added at the time of temperature shift. At indicated times post-temperature shift, the cells were treated with a low pH buffer to inactivate virus that had not penetrated, washed, overlaid with medium containing methyl cellulose and viral plaques were counted at 48 h. Entry was also assessed by immunoblotting nuclear extracts for VP16. […] Nuclear extracts were prepared after 1 h and analyzed by western blot with antibodies targeting VP16, histone H1 and golgin-97[5]. The non-nuclear fraction was also probed for golgin-97 as a positive control. […] After 1 or 4 h of incubation, the cells were fixed. Plasma membranes were stained using Image -IT^TM LIVE Plasma Membrane kit and nuclei were stained with DAPI (Thermo Fisher Scientific, Cat 134406). The percentage of GFP + nuclei was determined by counting ~200 cells over 3–4 fields. Images were obtained with Leica SP8 microscope (objective 63 × 1.4); xz images were captured with optical slice 0.6 µm, 25–30 slices per image.

JNK2 = target: T17, JNK2 (Homo sapiens, UniProt P45984); test: HotSpot kinase assay; assay type: biochemical; conditions: read-out: % Enzyme Activity (relative to DMSO controls)
T17 construct: purchased Reaction Biology Corporation

NEK4 = target: T18, NEK4 (Homo sapiens, UniProt P51957); test: HotSpot kinase assay; assay type: biochemical; conditions: read-out: % Enzyme Activity (relative to DMSO controls)
T18 construct: purchased Reaction Biology Corporation

PKA = target: T19, PKA (Homo sapiens, UniProt P17612); test: HotSpot kinase assay; assay type: biochemical
T19 construct: purchased Reaction Biology Corporation

HIPK4 = target: T20, HIPK4 (Homo sapiens, UniProt Q8NE63); test: HotSpot kinase assay; assay type: biochemical; conditions: read-out: % Enzyme Activity (relative to DMSO controls)
T20 construct: purchased Reaction Biology Corporation

TXK = target: T21, TXK (Homo sapiens, UniProt P42681); test: HotSpot kinase assay; assay type: biochemical; conditions: read-out: % Enzyme Activity (relative to DMSO controls)
T21 construct: purchased Reaction Biology Corporation

EEF2K = target: T22, EEF2K (Homo sapiens, UniProt O00418); test: HotSpot kinase assay; assay type: biochemical; conditions: read-out: % Enzyme Activity (relative to DMSO controls)
T22 construct: purchased Reaction Biology Corporation

RIPK4 = target: T23, RIPK4 (Homo sapiens, UniProt P57078); test: HotSpot kinase assay; assay type: biochemical; conditions: read-out: % Enzyme Activity (relative to DMSO controls)
T23 construct: purchased Reaction Biology Corporation
T23 sequence (P57078 whole entry): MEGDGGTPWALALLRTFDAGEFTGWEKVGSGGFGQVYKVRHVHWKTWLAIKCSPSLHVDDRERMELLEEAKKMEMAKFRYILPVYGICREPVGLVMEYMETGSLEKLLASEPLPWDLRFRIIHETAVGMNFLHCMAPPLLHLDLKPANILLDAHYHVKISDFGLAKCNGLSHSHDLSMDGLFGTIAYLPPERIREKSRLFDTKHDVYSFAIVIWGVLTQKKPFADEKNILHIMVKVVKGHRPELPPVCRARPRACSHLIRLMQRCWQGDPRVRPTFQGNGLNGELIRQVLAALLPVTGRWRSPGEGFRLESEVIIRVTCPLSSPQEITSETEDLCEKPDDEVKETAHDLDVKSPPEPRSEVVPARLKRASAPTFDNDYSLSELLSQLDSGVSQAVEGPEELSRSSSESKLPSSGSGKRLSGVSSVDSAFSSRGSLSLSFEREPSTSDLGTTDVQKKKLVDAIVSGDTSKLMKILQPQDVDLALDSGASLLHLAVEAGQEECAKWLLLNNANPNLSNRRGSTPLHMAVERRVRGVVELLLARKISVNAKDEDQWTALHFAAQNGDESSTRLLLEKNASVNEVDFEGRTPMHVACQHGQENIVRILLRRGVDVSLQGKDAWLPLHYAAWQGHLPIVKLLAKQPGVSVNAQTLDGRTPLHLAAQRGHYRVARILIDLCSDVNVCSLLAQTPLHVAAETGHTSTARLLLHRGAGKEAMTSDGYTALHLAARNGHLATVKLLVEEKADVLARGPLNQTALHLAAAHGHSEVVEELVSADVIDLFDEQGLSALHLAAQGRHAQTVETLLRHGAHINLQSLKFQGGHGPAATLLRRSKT

DRAK1/STK17A = target: T24, DRAK1/STK17A (Homo sapiens, UniProt Q9UEE5); test: HotSpot kinase assay; assay type: biochemical; conditions: read-out: % Enzyme Activity (relative to DMSO controls)
T24 construct: purchased Reaction Biology Corporation

PIM3 = target: T25, PIM3 (Homo sapiens, UniProt Q86V86); test: HotSpot kinase assay; assay type: biochemical; conditions: read-out: % Enzyme Activity (relative to DMSO controls)
T25 construct: purchased Reaction Biology Corporation

ABL1 = target: T26, ABL1 (Homo sapiens, UniProt P00519); test: biochemical
T26 construct: purchased Reaction Biology Corporation
T26 sequence (P00519 whole entry): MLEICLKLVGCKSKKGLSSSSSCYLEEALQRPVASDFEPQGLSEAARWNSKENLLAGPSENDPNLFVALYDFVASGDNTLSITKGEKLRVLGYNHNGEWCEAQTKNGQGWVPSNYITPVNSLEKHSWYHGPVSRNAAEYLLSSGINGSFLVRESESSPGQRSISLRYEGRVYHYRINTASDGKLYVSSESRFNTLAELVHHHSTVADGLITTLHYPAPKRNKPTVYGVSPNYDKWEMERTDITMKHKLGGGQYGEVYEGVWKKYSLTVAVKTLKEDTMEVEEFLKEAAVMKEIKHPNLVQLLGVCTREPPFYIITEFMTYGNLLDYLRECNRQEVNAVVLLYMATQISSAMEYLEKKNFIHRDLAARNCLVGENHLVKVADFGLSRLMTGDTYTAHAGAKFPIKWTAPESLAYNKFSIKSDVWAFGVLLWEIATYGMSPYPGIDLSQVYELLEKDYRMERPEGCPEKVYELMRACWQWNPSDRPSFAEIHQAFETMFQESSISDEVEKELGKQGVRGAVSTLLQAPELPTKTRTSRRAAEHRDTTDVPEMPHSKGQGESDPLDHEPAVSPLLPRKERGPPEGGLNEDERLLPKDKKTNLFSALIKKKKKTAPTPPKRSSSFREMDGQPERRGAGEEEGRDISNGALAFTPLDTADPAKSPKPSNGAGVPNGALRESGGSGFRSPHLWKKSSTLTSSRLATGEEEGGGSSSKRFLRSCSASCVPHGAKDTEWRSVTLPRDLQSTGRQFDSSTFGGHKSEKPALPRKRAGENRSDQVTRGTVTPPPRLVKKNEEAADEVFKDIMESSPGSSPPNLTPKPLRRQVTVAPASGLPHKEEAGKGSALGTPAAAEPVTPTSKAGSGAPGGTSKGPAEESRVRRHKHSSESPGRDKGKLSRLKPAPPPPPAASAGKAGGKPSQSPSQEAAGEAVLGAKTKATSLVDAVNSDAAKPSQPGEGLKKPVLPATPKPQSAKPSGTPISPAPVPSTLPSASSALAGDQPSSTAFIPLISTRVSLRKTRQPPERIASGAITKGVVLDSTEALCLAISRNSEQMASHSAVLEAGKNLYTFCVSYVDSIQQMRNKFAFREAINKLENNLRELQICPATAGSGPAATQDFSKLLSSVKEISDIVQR

JAK3 = target: T27, JAK3 (Homo sapiens, UniProt P52333); test: HotSpot kinase assay; assay type: biochemical; conditions: read-out: % Enzyme Activity (relative to DMSO controls)
T27 construct: purchased Reaction Biology Corporation

PKCa = target: T28, PKCa (Homo sapiens, UniProt P17252); test: HotSpot kinase assay; assay type: biochemical; conditions: read-out: % Enzyme Activity (relative to DMSO controls)
T28 construct: purchased Reaction Biology Corporation

PLSCR1 = assay type: cell-based, monkey; conditions: 30 min; drugs 10 μM, immunoglobulins 10 μg/ml
CDK1/cyclin A = target: T29, CDK1/cyclin A (Homo sapiens, UniProt P06493); test: HotSpot kinase assay; assay type: biochemical; conditions: read-out: % Enzyme Activity (relative to DMSO controls)
T29 construct: purchased Reaction Biology Corporation

P38a/MAPK14 = target: T30, P38a/MAPK14 (Homo sapiens, UniProt Q16539); test: HotSpot kinase assay; assay type: biochemical; conditions: read-out: % Enzyme Activity (relative to DMSO controls)
T30 construct: purchased Reaction Biology Corporation
T30 sequence (Q16539 whole entry): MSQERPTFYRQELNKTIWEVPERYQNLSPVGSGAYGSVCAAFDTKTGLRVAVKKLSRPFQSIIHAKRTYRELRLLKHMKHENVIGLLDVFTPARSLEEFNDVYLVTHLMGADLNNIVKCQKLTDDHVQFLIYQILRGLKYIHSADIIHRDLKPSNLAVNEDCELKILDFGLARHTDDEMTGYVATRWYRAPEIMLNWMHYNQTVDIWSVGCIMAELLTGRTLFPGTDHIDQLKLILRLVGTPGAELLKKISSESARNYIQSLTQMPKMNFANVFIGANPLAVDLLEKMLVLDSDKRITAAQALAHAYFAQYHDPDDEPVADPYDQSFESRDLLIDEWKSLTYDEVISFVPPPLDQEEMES

EIF2AK3 = target: T31, EIF2AK3 (Homo sapiens, UniProt Q9NZJ5); test: HotSpot kinase assay; assay type: biochemical; conditions: read-out: % Enzyme Activity (relative to DMSO controls)
T31 construct: purchased Reaction Biology Corporation

JNK3 = target: T32, JNK3 (Homo sapiens, UniProt P53779); test: HotSpot kinase assay; assay type: biochemical; conditions: read-out: % Enzyme Activity (relative to DMSO controls)
T32 construct: purchased Reaction Biology Corporation

MYO3b = target: T33, MYO3b (Homo sapiens, UniProt Q8WXR4); test: HotSpot kinase assay; assay type: biochemical; conditions: read-out: % Enzyme Activity (relative to DMSO controls)
T33 construct: purchased Reaction Biology Corporation

Aurora A = target: T34, Aurora A (Homo sapiens, UniProt O14965); test: HotSpot kinase assay; assay type: biochemical; conditions: read-out: % Enzyme Activity (relative to DMSO controls)
T34 construct: purchased Reaction Biology Corporation

[1] = Supplementary Table 1, read-out: IC50 (Molar concentration)
[2] = read-out: % Enzyme Activity (relative to DMSO controls), 10µM

CO[C@@H]1[C@H](N(C)C(=O)CCC(=O)NCc2cn(CCCS(=O)(=O)O)nn2)C[C@H]2O[C@]1(C)n1c3ccccc3c3c4c(c5c6ccccc6n2c5c31)C(=O)NC4 [CIMSS] was tested, and the remaining activity at 10 µM (PHKg1) was 3.74%, the remaining activity at 10 µM (EPHB4) was 19.4% and the remaining activity at 10 µM (FAK/PTK2) was 15.5%. For the same compound, the remaining activity at 10 µM (YES/YES1) was 1.4%, the remaining activity at 10 µM (PLK1) was 17.1% and the remaining activity at 10 µM (BRAF) was 132%. The remaining activity at 10 µM (PKCnu/PRKD3) was 11.4%, the remaining activity at 10 µM (EPHB1) was 1.91% and the remaining activity at 10 µM (KSR2) was 108%. For the same compound, the remaining activity at 10 µM (GCK/MAP4K2) was 4.74%, the remaining activity at 10 µM (DMPK) was 76.5% and the remaining activity at 10 µM (NEK9) was 2.81%. It also gave a remaining activity at 10 µM (HIPK3) of 14.5%, a remaining activity at 10 µM (PKCzeta) of 55.8% and a remaining activity at 10 µM (CK1epsilon) of 38.8%. For the same compound, the remaining activity at 10 µM (CK1g3) was 97.2%, the “nuclear transport of VP-16” value (HSV-2(G)) was “inhibited” and the remaining activity at 10 µM (JNK2) was 42.3%. For the same compound, the remaining activity at 10 µM (NEK4) was 6.24%, the IC50 (PKA; [1]) was 42.3 nM and the remaining activity at 10 µM (PKA; [2]) was 6.32%. The remaining activity at 10 µM (HIPK4) was 10.7%, the remaining activity at 10 µM (TXK) was 3.64% and the remaining activity at 10 µM (EEF2K) was 99.5%. For the same compound, the remaining activity at 10 µM (RIPK4) was 99.1%, the remaining activity at 10 µM (DRAK1/STK17A) was 18.2% and the remaining activity at 10 µM (PIM3) was 2.51%. The IC50 (ABL1; [1]) was 143 nM, the remaining activity at 10 µM (ABL1; [2]) was 5.18% and the remaining activity at 10 µM (JAK3) was 0.97%. The remaining activity at 10 µM (PKCa) was 0.86%, the “Phosphorylation of PLSCR1” value (PLSCR1) was “preserved” and the remaining activity at 10 µM (CDK1/cyclin A) was 21.3%. It also gave a remaining activity at 10 µM (P38a/MAPK14) of 102%, a remaining activity at 10 µM (EIF2AK3) of 61.6% and a remaining activity at 10 µM (JNK3) of 23.6%. The remaining activity at 10 µM (MYO3b) was 4.81% and the remaining activity at 10 µM (Aurora A) was 1.92%.
